Columns and labels:
Solubility = format: physicochemical
Description: (j) solubility: soluble in water, methanol and ethanol; insoluble in ethyl acetate and acetone;

Komatsuna seeds = assay: Inhibitory effect on the germination of Komatsuna seeds; format: in vivo, Brassica rapa (L) var. Komatsuna Hara; settings: Brassica rapa, 72 h; 28° C. for 3 days; read-out: minimum inhibitory concentration against the germination of Komatsuna seeds
Procedure: Sterilized cotton was placed on the bottom of a test tube (10 mm×100 mm) to a height of about 5 mm, and the cotton was then soaked with 0.5 ml of either distilled water or of an aqueous solution containing various concentrations of Substance No. 51262. About 10 seeds of the plant Komatsuna [Brassica rapa (L) var. Komatsuna Hara] were placed into each test tube and allowed to stand at 28° C. for 3 days to determine the inhibitory concentration of Substance No. 51262, assessed by the presence or absence of germination.

[1] = test system: paddy field rice, soybeans, corn, cotton and purple nutsedge; assay: Plant growth retardation; format: in vivo
Description: (§1) A plastic pot was filled with upland soil to provide a surface area of soil of 150 cm^2. Seeds of paddy field rice, soybeans corn and cotton were sowed, Tubers of the perennial weed, purple nutsedge (Cyperus rotundus) were then planted into each pot and the seeds and tubers were covered with the same soil. The pots were placed in a greenhouse for 10 days, after which aqueous solutions of Substance No. 51262 (prepared as described hereafter in Example 11) to the required concentrations were mixed with 0.03% v/v of the spreader Gramin S. 5 ml of the resulting solution were sprayed onto each pot. The growth of the resulting plants were compared after 2 weeks with a control which had not been so treated.

purple nutsedge = assay: Plant growth retardation, purple nutsedge; format: in vivo, Cyperus rotundus; settings: 500 ppm; after 2 weeks vs untreated control
Description: as §1

mice = settings: mouse, in vivo, iv, 100 mg/kg
Procedure: A solution of Substance No. 51262 was administered intravenously to mice in an amount of 100 mg/kg bodyweight.

various weeds = assay: Herbicidal activity against weeds, pre- and post-emergence (summary statement); format: in vivo

In the case of O=C1NC(=O)[C@@]2(N1)O[C@H](CO)[C@@H](O)[C@H]2O [Substance No. 51262], the solubility (Solubility; acetone) is reported as “insoluble”, the solubility (Solubility; ethanol) is reported as “soluble” and the solubility (Solubility; ethyl acetate) is reported as “insoluble”. For the same compound, the solubility (Solubility; methanol) was “soluble”, the solubility (Solubility; water) was “soluble” and the minimal effective concentration (Komatsuna seeds) was 3.13 µg/mL. For the same compound, the growth retardation ([1]; 125 ppm, all plants, after 2 weeks vs untreated control) was “about 50%”, the plant growth retardation ([1]; summary statement) was “can retard plant growth without killing the plants” and the “growth inhibition of the shoot and rhizome” value (purple nutsedge) was “almost complete growth inhibition”. For the same compound, the abnormalities observed (mice) was “no abnormalities were detected” and the herbicidal activity (various weeds) was “excellent herbicidal activity”.
